Experimental data reported in paper PMC9709406 (Frontiers in Pharmacology, 2022).
“And” between values parts separate entries of the source, which are not always exact repeats. Identical values can stand only once.

Tests used:
KYSE450 cells = assay: MTT assay, KYSE450; format: cell-based, human; conditions: for IC50: Homo sapiens, KYSE-450, MTT, 48 h, KYSE450, n = 5, read-out: IC50 48 h KYSE450; for absorbance 490 nm, single well / mean absorbance 490 nm (row G) / mean absorbance 490 nm minus background (row H): KYSE450
Excerpt: (§1) The human cancer cells (H1650, H1975, KYSE70, KYSE410 and KYSE450) were purchased from the Type Culture Collection of the Chinese Academy of Sciences (Shanghai, China). The human immortalized normal esophageal epithelial cell line SHEE was donated by Dr. Enmin Li from the Laboratory of Tumor Pathology (Shantou University Medical College, Shantou, Guangdong, China). Drug-resistant cells (H1650TR, H1975OR, KYSE70TR, KYSE410TR and KYSE450TR) were induced by China-US (Henan) Hormel Cancer Institute. The cellswere cultured in RPMI-1640 complete growth medium containing 100 U/mL penicillin-streptomycin and 10% FBS. Based on the above medium formula, 100 nm/L paclitaxel was added in taxol-resistant cells, 100 nm/L gefitinib was added in gefitinib-resistant cells. The cells were incubated at 37 °C in an atmosphere containing 5% of CO2. The compounds were dissolved in DMSO to make a 50 mM stock solution and were diluted to the concentration of working solutions with complete growth medium before administration.
(§2) Cells were seeded in 96-well plates with 2,200–2,500 cells/well in100 μL. One day after seeding, test compounds with the concentration between 0 and 50 μM were added with 0.1% DMSO as control. Five multiple wells for each concentration. After 48 h, MTT was added and incubated in the plate for 1–4 h in the incubator. The absorbance at 490 nm was measured using a microplate reader (Thermo).

H1650 cells = assay: MTT assay for cell proliferation and cytotoxicity, H1650; format: cell-based; conditions: Homo sapiens, NCI-H1650, 48 h, H1650, n = 5
Excerpt: as §1, §2

H1975 cells = assay: MTT assay for cell proliferation and cytotoxicity, H1975; format: cell-based, human; conditions: Homo sapiens, NCI-H1975, 48 h, MTT, 48 h, H1975, n = 5; read-out: IC50 48 h H1975
Excerpt: as §1
as §2, with “After 48 h, MTT was added and incubated in the plate for 1–4 h in the incubator.” left out

SHEE cells = assay: MTT assay, normal esophageal epithelial cell line SHEE; format: cell-based; conditions: Homo sapiens, 48 h, n = 5
Excerpt: as §1, §2

KYSE70 cells = assay: MTT assay, KYSE70; format: cell-based, human; conditions: for IC50: Homo sapiens, KYSE-70, MTT, 48 h, KYSE70, n = 5
Excerpt: as §1, §2

KYSE410 cells = assay: MTT assay, KYSE410; format: cell-based, human; conditions: for IC50: Homo sapiens, KYSE-410, MTT, 48 h, KYSE410, n = 5, read-out: IC50 48 h KYSE410
Excerpt: as §1, §2

[1] = concentration 12.5 (unit not given)
[2] = concentration 25 (unit not given)
[3] = concentration 50 (unit not given)
[4] = concentration 100 (unit not given)

## Fc1ccc(CCn2cc(-c3cccc(Nc4ncnc5cc6c(cc45)OCCOCCOCCO6)c3)nn2)cc1 [compound 3v]
KYSE450 cells
  IC50: 11 ± 0.97 µM
KYSE450 cells; [1]
  absorbance 490 nm, single well: 0.3527 and 0.3885 and 0.4267 and 0.4169
  mean absorbance 490 nm (row G): 0.3962
  mean absorbance 490 nm minus background (row H): 0.3414
KYSE450 cells; [2]
  absorbance 490 nm, single well: 0.1525 and 0.1448 and 0.156 and 0.143 and 0.153
  mean absorbance 490 nm (row G): 0.1499
  mean absorbance 490 nm minus background (row H): 0.09506
KYSE450 cells; [3]
  absorbance 490 nm, single well: 0.0873 and 0.0943 and 0.1023 and 0.0955
  mean absorbance 490 nm (row G): 0.09485
  mean absorbance 490 nm minus background (row H): 0.04005
KYSE450 cells; [4]
  absorbance 490 nm, single well: 0.0657 and 0.0611 and 0.0638 and 0.0596 and 0.0609
  mean absorbance 490 nm (row G): 0.06222
  mean absorbance 490 nm minus background (row H): 0.00742
H1650 cells
  IC50: 11.6 ± 0.96 µM
H1975 cells
  IC50: 11.1 ± 0.95 µM
SHEE cells
  IC50: 8.26 ± 0.71 µM
other
  melting point: 110 to 113 °C
KYSE70 cells
  IC50: 6.93 ± 0.37 µM
KYSE70 cells; KYSE70, concentration 12.5
  blank-corrected absorbance 490 nm relative to control (fraction): 0.0977
  inhibition (1 minus fraction of control): 0.9023
KYSE70 cells; KYSE70, concentration 25
  blank-corrected absorbance 490 nm relative to control (fraction): 0.03951
  inhibition (1 minus fraction of control): 0.9605
KYSE70 cells; KYSE70, concentration 50
  blank-corrected absorbance 490 nm relative to control (fraction): 0.1249
  inhibition (1 minus fraction of control): 0.8751
KYSE70 cells; KYSE70, concentration 100
  blank-corrected absorbance 490 nm relative to control (fraction): 0.0961
  inhibition (1 minus fraction of control): 0.9039
KYSE410 cells
  IC50: 21.6 ± 1.35 µM
KYSE410 cells; KYSE410, concentration 12.5
  blank-corrected absorbance 490 nm relative to control (fraction): 1.2383
  inhibition (1 minus fraction of control): -0.2383
KYSE410 cells; KYSE410, concentration 25
  blank-corrected absorbance 490 nm relative to control (fraction): 0.4202
  inhibition (1 minus fraction of control): 0.5798
KYSE410 cells; KYSE410, concentration 50
  blank-corrected absorbance 490 nm relative to control (fraction): 0.1986
  inhibition (1 minus fraction of control): 0.8014
KYSE410 cells; KYSE410, concentration 100
  blank-corrected absorbance 490 nm relative to control (fraction): -0.03723
  inhibition (1 minus fraction of control): 1.037

## COc1cccc(Cn2cc(-c3cccc(Nc4ncnc5cc6c(cc45)OCCOCCOCCO6)c3)nn2)c1 [compound 3t]
KYSE450 cells
  IC50: 45.6 ± 2.01 µM
H1650 cells
  IC50: 21 ± 1.91 µM
H1975 cells
  IC50: 20 ± 1.52 µM
SHEE cells
  IC50: 33.3 ± 1.99 µM
other
  melting point: 131 to 134 °C
KYSE70 cells
  IC50: > 50 µM
KYSE410 cells
  IC50: > 50 µM

## Brc1cccc(Cn2cc(-c3cccc(Nc4ncnc5cc6c(cc45)OCCOCCOCCO6)c3)nn2)c1 [compound 3q]
KYSE450 cells
  IC50: 21.8 ± 1.12 µM
H1650 cells
  IC50: 21.5 ± 1.87 µM
H1975 cells
  IC50: 47.3 ± 2.13 µM
SHEE cells
  IC50: > 50 µM
other
  melting point: 113 to 116 °C
KYSE70 cells
  IC50: 20.7 ± 1.73 µM
KYSE410 cells
  IC50: > 50 µM

## c1ccc(-n2cc(-c3cccc(Nc4ncnc5cc6c(cc45)OCCOCCOCCO6)c3)nn2)cc1 [compound 3f]
KYSE450 cells
  IC50: 45 ± 2.53 µM
H1650 cells
  IC50: 12.3 ± 0.91 µM
H1975 cells
  IC50: > 50 µM
SHEE cells
  IC50: > 50 µM
other
  melting point: 148 to 150 °C
KYSE70 cells
  IC50: 25 ± 1.53 µM
KYSE410 cells
  IC50: > 50 µM

## Ic1ccccc1Cn1cc(-c2cccc(Nc3ncnc4cc5c(cc34)OCCOCCOCCO5)c2)nn1 [compound 3p]
KYSE450 cells
  IC50: > 50 µM
H1650 cells
  IC50: 4.41 ± 0.31 µM
H1975 cells
  IC50: 39.5 ± 1.91 µM
SHEE cells
  IC50: > 50 µM
other
  melting point: 121 to 123 °C
KYSE70 cells
  IC50: 19.9 ± 1.31 µM
KYSE410 cells
  IC50: > 50 µM

## Brc1ccccc1-n1cc(-c2cccc(Nc3ncnc4cc5c(cc34)OCCOCCOCCO5)c2)nn1 [compound 3k]
KYSE450 cells
  IC50: 6.25 ± 0.57 µM
H1650 cells
  IC50: 17.7 ± 1.21 µM
H1975 cells
  IC50: 27.2 ± 1.67 µM
SHEE cells
  IC50: 12.5 ± 1.03 µM
other
  melting point: 129 to 132 °C
KYSE70 cells
  IC50: 5.05 ± 0.34 µM
KYSE410 cells
  IC50: 21.9 ± 1.39 µM

## Ic1ccccc1-n1cc(-c2cccc(Nc3ncnc4cc5c(cc34)OCCOCCOCCO5)c2)nn1 [compound 3h]
KYSE450 cells
  IC50: 16.7 ± 1.31 µM
H1650 cells
  IC50: 30.6 ± 1.99 µM
H1975 cells
  IC50: 12.1 ± 0.92 µM
SHEE cells
  IC50: 22.6 ± 1.19 µM
other
  melting point: 137 to 140 °C
KYSE70 cells
  IC50: 18.4 ± 1.05 µM
KYSE410 cells
  IC50: > 50 µM

## Clc1cccc(-n2cc(-c3cccc(Nc4ncnc5cc6c(cc45)OCCOCCOCCO6)c3)nn2)c1 [compound 3g]
KYSE450 cells
  IC50: 4.51 ± 0.29 µM
H1650 cells
  IC50: 8.72 ± 0.73 µM
H1975 cells
  IC50: 4.75 ± 0.33 µM
SHEE cells
  IC50: 8.01 ± 0.77 µM
KYSE70 cells
  IC50: 6.13 ± 0.31 µM
KYSE410 cells
  IC50: 10.9 ± 0.99 µM
